Assay results as given in ChEMBL document CHEMBL4825677, “Design, synthesis and biological evaluation of novel benzofuran derivatives as potent LSD1 inhibitors” (Eur J Med Chem, 2021).

How the values were obtained:
[1] = target: T1, Amine oxidase [flavin-containing] A (Homo sapiens, UniProt P21397); test: Inhibition of N-terminal FLAG-tagged human recombinant MAO-A expressed in baculovirus-infected Sf9 cells by […]
T1 sequence (P21397 whole entry): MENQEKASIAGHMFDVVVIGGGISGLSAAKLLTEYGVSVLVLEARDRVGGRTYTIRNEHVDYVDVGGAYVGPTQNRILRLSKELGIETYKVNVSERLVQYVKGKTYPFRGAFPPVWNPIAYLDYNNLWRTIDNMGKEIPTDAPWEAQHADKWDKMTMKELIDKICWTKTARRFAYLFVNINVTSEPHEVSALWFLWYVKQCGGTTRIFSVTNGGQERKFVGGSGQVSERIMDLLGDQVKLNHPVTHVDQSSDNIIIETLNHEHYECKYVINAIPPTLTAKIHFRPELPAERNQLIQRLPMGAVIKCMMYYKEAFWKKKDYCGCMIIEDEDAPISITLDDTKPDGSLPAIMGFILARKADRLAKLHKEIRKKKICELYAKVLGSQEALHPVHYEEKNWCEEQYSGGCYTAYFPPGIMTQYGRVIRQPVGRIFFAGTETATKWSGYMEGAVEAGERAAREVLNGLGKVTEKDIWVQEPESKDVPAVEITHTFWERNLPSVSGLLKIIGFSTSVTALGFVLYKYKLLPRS

[2] = target: T2, Amine oxidase [flavin-containing] B (Homo sapiens, UniProt P27338); test: Inhibition of N-terminal FLAG-tagged human recombinant MAO-B expressed in baculovirus-infected Sf9 cells by […]
T2 sequence (P27338 whole entry): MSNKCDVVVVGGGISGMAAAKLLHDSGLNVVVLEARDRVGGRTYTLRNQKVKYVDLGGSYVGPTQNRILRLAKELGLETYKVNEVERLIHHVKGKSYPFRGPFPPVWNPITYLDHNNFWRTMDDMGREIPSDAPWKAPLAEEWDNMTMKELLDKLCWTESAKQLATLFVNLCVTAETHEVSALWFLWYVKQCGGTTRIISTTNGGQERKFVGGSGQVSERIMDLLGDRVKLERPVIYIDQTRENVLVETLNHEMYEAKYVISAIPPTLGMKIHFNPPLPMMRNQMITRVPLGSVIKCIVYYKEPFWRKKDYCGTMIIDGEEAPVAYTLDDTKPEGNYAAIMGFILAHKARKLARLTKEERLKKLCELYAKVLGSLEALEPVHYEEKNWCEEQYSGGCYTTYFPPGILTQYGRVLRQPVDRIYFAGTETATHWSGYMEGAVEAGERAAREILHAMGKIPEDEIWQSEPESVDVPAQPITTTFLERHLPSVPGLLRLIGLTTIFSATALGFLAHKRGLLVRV

[3] = Microsomal stability in human liver microsomes assessed as parent compound remaining after 60 mins in presence of NADPH regenerating system by LC-MS/MS analysis; type: ADME, Microsome; settings: read-out: Stabilty
[4] = Microsomal stability in human liver microsomes assessed as parent compound remaining after 60 mins in absence of NADPH regenerating system by LC-MS/MS analysis; type: ADME, Microsome; settings: read-out: Stabilty
[5] = target: Cytochrome P450 2C9 (Homo sapiens, UniProt P11712); test: Inhibition of CYP2C9 in human liver microsomes at 10 uM by LC-MS/MS analysis; type: ADME
Chain of Cytochrome P450 2C9 (P11712 whole entry): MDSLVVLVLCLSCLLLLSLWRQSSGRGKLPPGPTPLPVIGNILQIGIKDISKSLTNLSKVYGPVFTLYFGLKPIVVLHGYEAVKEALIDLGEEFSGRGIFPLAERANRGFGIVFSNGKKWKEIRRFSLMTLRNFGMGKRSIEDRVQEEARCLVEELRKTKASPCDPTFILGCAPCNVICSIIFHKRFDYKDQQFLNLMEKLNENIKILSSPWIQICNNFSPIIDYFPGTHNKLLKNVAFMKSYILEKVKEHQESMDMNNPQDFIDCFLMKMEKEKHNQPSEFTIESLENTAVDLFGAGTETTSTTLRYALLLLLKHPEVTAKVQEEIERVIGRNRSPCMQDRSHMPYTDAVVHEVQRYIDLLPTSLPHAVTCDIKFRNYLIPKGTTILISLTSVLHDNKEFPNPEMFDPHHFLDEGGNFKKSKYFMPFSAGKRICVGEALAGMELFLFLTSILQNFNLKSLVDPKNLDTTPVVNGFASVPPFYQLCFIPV

[6] = target: Cytochrome P450 2C19 (Homo sapiens, UniProt P33261); test: Inhibition of CYP2C19 in human liver microsomes at 10 uM by LC-MS/MS analysis; type: ADME
Chain of Cytochrome P450 2C19 (P33261 whole entry): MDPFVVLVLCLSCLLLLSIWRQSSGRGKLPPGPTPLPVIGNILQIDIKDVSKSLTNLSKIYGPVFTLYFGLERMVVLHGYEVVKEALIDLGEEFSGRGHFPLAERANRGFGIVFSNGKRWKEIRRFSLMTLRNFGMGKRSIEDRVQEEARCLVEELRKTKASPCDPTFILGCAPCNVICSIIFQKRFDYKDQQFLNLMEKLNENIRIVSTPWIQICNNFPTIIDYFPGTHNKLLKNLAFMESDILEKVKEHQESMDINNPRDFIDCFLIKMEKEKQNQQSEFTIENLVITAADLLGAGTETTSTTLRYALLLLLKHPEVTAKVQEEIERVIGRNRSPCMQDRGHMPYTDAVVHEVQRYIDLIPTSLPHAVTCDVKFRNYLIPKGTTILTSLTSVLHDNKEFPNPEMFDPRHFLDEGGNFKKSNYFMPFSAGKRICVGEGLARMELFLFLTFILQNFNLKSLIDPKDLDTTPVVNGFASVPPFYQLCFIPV

[7] = target: Cytochrome P450 2D6 (Homo sapiens, UniProt P10635); test: Inhibition of CYP2D6 in human liver microsomes at 10 uM by LC-MS/MS analysis; type: ADME
Chain of Cytochrome P450 2D6 (P10635 whole entry): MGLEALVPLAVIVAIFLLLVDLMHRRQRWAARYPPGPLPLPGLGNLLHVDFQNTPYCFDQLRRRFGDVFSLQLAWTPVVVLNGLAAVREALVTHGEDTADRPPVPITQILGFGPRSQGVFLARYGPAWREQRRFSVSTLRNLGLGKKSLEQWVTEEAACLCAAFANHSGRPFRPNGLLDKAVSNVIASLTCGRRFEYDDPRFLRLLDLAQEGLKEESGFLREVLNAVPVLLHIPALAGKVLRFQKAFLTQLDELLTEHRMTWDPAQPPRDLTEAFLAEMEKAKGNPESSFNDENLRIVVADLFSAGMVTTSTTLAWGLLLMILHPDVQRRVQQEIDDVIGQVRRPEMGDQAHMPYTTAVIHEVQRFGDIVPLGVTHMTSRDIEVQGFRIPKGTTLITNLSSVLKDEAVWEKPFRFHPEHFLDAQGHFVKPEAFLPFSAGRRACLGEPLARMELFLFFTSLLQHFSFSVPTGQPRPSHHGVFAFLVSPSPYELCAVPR

[8] = target: Cytochrome P450 3A4 (Homo sapiens, UniProt P08684); test: Inhibition of CYP3A4 in human liver microsomes at 10 uM by LC-MS/MS analysis; type: ADME
Chain of Cytochrome P450 3A4 (P08684 whole entry): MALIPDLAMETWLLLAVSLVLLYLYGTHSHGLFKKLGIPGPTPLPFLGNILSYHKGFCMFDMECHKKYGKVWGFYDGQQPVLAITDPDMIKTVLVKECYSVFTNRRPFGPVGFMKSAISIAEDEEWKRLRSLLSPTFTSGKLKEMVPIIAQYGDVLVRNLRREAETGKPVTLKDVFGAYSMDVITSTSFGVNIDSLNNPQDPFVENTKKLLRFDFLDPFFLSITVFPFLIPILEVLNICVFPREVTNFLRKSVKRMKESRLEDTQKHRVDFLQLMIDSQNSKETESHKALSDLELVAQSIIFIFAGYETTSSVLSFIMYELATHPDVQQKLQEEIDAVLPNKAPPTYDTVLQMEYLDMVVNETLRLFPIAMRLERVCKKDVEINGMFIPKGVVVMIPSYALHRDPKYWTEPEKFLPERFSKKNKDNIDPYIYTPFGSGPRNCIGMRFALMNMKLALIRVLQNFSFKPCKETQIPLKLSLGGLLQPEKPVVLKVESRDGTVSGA

[9] = target: T3, Cytochrome P450 1A2 (Homo sapiens, UniProt P05177); test: Inhibition of CYP1A2 in human liver microsomes at 10 uM by LC-MS/MS analysis; type: ADME
T3 sequence (P05177 whole entry): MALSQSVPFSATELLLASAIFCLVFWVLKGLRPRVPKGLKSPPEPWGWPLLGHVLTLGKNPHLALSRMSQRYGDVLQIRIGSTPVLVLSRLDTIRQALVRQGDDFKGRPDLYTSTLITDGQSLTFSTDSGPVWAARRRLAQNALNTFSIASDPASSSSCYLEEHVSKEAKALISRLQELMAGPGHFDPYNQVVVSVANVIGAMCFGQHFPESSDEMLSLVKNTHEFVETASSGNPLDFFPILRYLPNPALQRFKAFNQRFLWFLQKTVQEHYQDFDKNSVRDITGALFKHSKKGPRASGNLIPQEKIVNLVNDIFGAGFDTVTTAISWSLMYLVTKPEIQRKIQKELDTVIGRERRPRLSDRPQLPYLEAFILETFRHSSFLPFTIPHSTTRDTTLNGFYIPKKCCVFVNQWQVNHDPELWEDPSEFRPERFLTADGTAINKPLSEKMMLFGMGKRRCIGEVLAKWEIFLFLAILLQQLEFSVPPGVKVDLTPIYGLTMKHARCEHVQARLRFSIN

[10] = system: NCI-H460; test: Induction of apoptosis in human NCI-H460 cells assessed as early apoptotic cells at 1 uM incubated for 48 hrs by AnnexinV-FITC/propidium iodide staining based flow cytometric analysis (reference value: 2.22%); type: functional
[11] = system: NCI-H460; test: Induction of apoptosis in human NCI-H460 cells assessed as late apoptotic cells at 1 uM incubated for 48 hrs by AnnexinV-FITC/propidium iodide staining based flow cytometric analysis (reference value: 1.36%); type: functional
[12] = system: NCI-H460; test: Induction of apoptosis in human NCI-H460 cells assessed as early apoptotic cells at 2 uM incubated for 48 hrs by AnnexinV-FITC/propidium iodide staining based flow cytometric analysis (reference value: 2.22%); type: functional
[13] = system: NCI-H460; test: Induction of apoptosis in human NCI-H460 cells assessed as late apoptotic cells at 2 uM incubated for 48 hrs by AnnexinV-FITC/propidium iodide staining based flow cytometric analysis (reference value: 1.36%); type: functional
[14] = system: NCI-H460; test: Induction of apoptosis in human NCI-H460 cells assessed as early apoptotic cells at 3 uM incubated for 48 hrs by AnnexinV-FITC/propidium iodide staining based flow cytometric analysis (reference value: 2.22%); type: functional
[15] = system: NCI-H460; test: Induction of apoptosis in human NCI-H460 cells assessed as late apoptotic cells at 3 uM incubated for 48 hrs by AnnexinV-FITC/propidium iodide staining based flow cytometric analysis (reference value: 1.36%); type: functional
[16] = system: NCI-H460; test: Inhibition of cell migration in human NCI-H460 cells assessed as reduction in cell migration measured after 48 hrs by wound healing assay; type: functional, cell-based; settings: dose 0.3-1.2 µM
[17] = system: NCI-H460; test: Inhibition of cell migration in human NCI-H460 assessed as reduction in cell migration at 0.3 to 1.2 uM by wound healing assay; type: functional, cell-based; settings: dose 0.3-1.2 µM, time 24-48 hrs, TDE = time-dependent effect
[18] = system: NCI-H460; test: Antitumor activity against human NCI-H460 cells xenografted in BALB/c mouse assessed as reduction in tumor weight at 20 mg/kg/day, ip for 15 days; type: functional; settings: 360 h, time 15 day
[19] = system: NCI-H460; test: Antitumor activity against human NCI-H460 cells xenografted in BALB/c mouse assessed as reduction in tumor volume at 20 mg/kg/day, ip for 15 days; type: functional; settings: 360 h, time 15 day
[20] = Toxicity in BALB/c mouse xenografted with human NCI-H460 cells assessed as body weight at 10 to 20 mg/kg/day, ip for 15 days and measured every 3 days; type: organism-based; settings: in vivo, 360 h, dose 10-20 mg/kg/day, time 15 day
[21] = system: MCF7; test: cells; settings: Homo sapiens, MCF7, 72 h
Description: Antiproliferative activity against human MCF7 cells assessed as reduction in cell viability incubated for 72 hrs by CCK8 assay

[22] = system: MGC-803; test: cells; settings: Homo sapiens, MGC-803, 72 h
Description: Antiproliferative activity against human MGC-803 cells assessed as reduction in cell viability incubated for 72 hrs by CCK8 assay

[23] = system: NCI-H460; test: cells; settings: Homo sapiens, NCI-H460, 72 h
Description: Antiproliferative activity against human NCI-H460 cells assessed as reduction in cell viability incubated for 72 hrs by CCK8 assay

[24] = system: A549; test: cells; settings: Homo sapiens, A549, 72 h
Description: Antiproliferative activity against human A549 cells assessed as reduction in cell viability incubated for 72 hrs by CCK8 assay

[25] = system: THP-1; test: cells; settings: Homo sapiens, THP-1, 72 h
Description: Antiproliferative activity against human THP-1 cells assessed as reduction in cell viability incubated for 72 hrs by CCK8 assay

[26] = system: THLE-2; test: cells; settings: Homo sapiens, THLE-2, 72 h
Description: Cytotoxicity against human THLE-2 cells assessed as reduction in cell viability incubated for 72 hrs by CCK8 assay

[27] = Metabolic stability in human liver microsomes assessed as half-life by LC-MS/MS analysis; type: ADME, Microsome
[28] = Metabolic stability in human liver microsome assessed as intrinsic clearance by LC-MS/MS analysis; type: ADME; settings: liver microsomes, read-out: CLH
[29] = Metabolic stability in human liver assessed as intrinsic clearance by LC-MS/MS analysis; type: ADME, tissue-based; settings: read-out: CLH
[30] = target: Lysine-specific histone demethylase 1A (Homo sapiens, UniProt O60341); test: Inhibition of human recombinant LSD1 by horseradish peroxidase-coupled fluorometric assay
[31] = system: MGC-803; test: Antiproliferative activity against human MGC-803 cells assessed as inhibition of cell growth by MTT assay; type: functional, cell-based

IC50 [1] [µM]	IC50 [2] [µM]	remaining at 1 h [3] [%]	remaining at 1 h [4] [%]	inhibition (INH) [5]	inhibition (INH) [6]	inhibition (INH) [7]	inhibition (INH) [8]	inhibition (INH) [9]	IC50 [21] [µM]	IC50 [22] [µM]	IC50 [23] [µM]	IC50 [24] [µM]	IC50 [25] [µM]	IC50 [26] [µM]	half-life [27] [h]	microsomal CLint [28] [µL/min/mg]	CLint scaled [29] [mL/min/kg]	SMILES	further results
–	–	–	–	–	–	–	–	–	5.72	7.55	1.9	2.45	6.68	3.94	–	–	–	Cc1ccc(-c2cc3occ(CNCCN)c3cc2-c2ccc(C#N)cc2)cc1	–
> 20	> 20	7.9	55.8	Active	Active	Active	Active	Active	3.36	6.47	1.87	4.08	4.87	4.2	0.168	138	124	CNCCCN(C)Cc1coc2cc(-c3ccc(C)cc3)c(-c3ccc(C#N)cc3)cc12	–
> 20	> 20	65.2	56.7	Active	Active	Active	Active	Active	3.29	5.83	2.13	5.5	6	4.76	1.58	14.6	13.2	Cc1ccc(-c2cc3occ(CNC4CCNC4)c3cc2-c2ccc(C#N)cc2)cc1 (centres undefined)	–

The remaining lines, values behind:

SMILES	IC50 [1] [µM]	IC50 [2] [µM]	remaining at 1 h [3] [%]	remaining at 1 h [4] [%]	inhibition (INH) [5]	inhibition (INH) [6]	inhibition (INH) [7]	inhibition (INH) [8]	inhibition (INH) [9]	IC50 [21] [µM]	IC50 [22] [µM]	IC50 [23] [µM]	IC50 [24] [µM]	IC50 [25] [µM]	IC50 [26] [µM]	half-life [27] [h]	microsomal CLint [28] [µL/min/mg]	CLint scaled [29] [mL/min/kg]	further results
Cc1ccc(-c2cc3occ(CN4CCC[C@H](N)C4)c3cc2-c2ccc(C#N)cc2)cc1	> 20	> 20	47	76.1	Active	Active	Active	Active	Active	2.9	5.85	2.06	5.74	6.15	7.07	–	–	–	Activity [10]: 2.22%; Activity [11]: 0.87%; Activity [12]: 6.78%; Activity [13]: 2.77%; Activity [14]: 19.13%; Activity [15]: 11.01%; inhibition [16]: Dose-Dependent Effect; inhibition [17]: Tde; inhibition in vivo at 20 mg/kg/day [18]: 64%; inhibition in vivo at 20 mg/kg/day [19]: 68%; Activity [20]: Non-Toxic
NC1C[C@@H]1c1ccc(-c2cccc(O)c2)cc1 (single isomer, unassigned)	–	–	–	–	–	–	–	–	–	–	–	–	–	–	–	–	–	–	IC50 [30]: 40.5 µM
O=C(O)[C@H]1O[C@@H](Oc2cc3oc(-c4ccccc4)cc(=O)c3c(O)c2O)[C@H](O)[C@@H](O)[C@@H]1O [BAICALIN]	–	–	–	–	–	–	–	–	–	–	–	–	–	–	–	–	–	–	IC50 [31]: 8.78 µM
Cc1ccc(-c2ncc(OCC3CCNCC3)cc2-c2ccc(C#N)cc2)cc1	–	–	67.5	88.6	Active	Active	Active	Active	Active	16.9	12.4	–	9.73	34	7.83	1.78	13	11.7	Activity [10]: 1.49%; Activity [11]: 1.12%; Activity [12]: 1.29%; Activity [13]: 0.9%; Activity [14]: 1.6%; Activity [15]: 1.21%; inhibition [16]: Dose-Dependent Effect; inhibition [17]: Tde
Cc1ccc(-c2cc3occ(CNC4CCC(N)CC4)c3cc2-c2ccc(C#N)cc2)cc1 (centres undefined)	–	–	–	–	–	–	–	–	–	4.31	6.27	1.58	6.33	7.06	1.41	–	–	–	–
